This is an account of results in patent publication US20250388643A1, “GLUCAGON-LIKE PEPTIDE-2 COMPOSITIONS AND METHODS OF MAKING AND USING SAME” (Amunix Pharmaceuticals, Inc., priority 2011, published 2025).

Data set [1] concerns small intestine growth in rats. In words: Intestinotrophic growth in normal rats (small intestine weight and length). Type of data set: in vivo, rat. The following applies: normal Sprague-Dawley rats, SC 12 days; peptide 12.5 nmol/kg twice daily, fusion protein 25 nmol/kg once daily. As for the experimental part:
To determine the intestinotrophic properties of GLP2-XTEN, small intestine growth in rats was measured as a primary pharmacodynamic endpoint. […] GLP2-2G-XTEN was dosed at 25 nmol/kg once daily for 12 days. After sacrifice, a midline incision was made, the small intestines were removed, stretched to their maximum length and the length recorded. The fecal material was flushed from the lumen and the small intestinal wet weight recorded. The small intestine length and weight data were analyzed with an ANOVA model with a Tukey/Kramer post-hoc test for pairwise comparisons, with significance at p=0.05.

The test system of data set [2] is DSS-induced intestinal colitis in C57Bl/6 mice. In words: Murine acute DSS-induced colitis model. Format: in vivo, mouse. Conditions: DSS-treated mice. As to the method:
To determine the efficacy of GLP2-XTEN, the GLP2-2G-XTEN-AE864 fusion protein was evaluated in a mouse model of intestinal inflammatory colitis. […] A naïve, non-treated control group (group 1) was given normal drinking water for the duration of the experiment. […] Tissues were fixed in formalin and then transferred to ethanol for staining and histopathology. The anatomical data was analyzed with an ANOVA model with a Tukey/Kramer post-hoc test for pairwise comparisons, with significance at p=0.05.

Data set [3] deals with indomethacin-induced intestinal inflammation in Wistar rats. In words: Rat Crohn's Disease indomethacin-induced intestinal inflammation model, Study 1. Type of data set: in vivo. As to the method: To determine the efficacy of GLP2-XTEN using single dose or qd dosing, the GLP2-2G-XTEN-AE864 fusion protein was evaluated in a rat model of Crohn's Disease of indomethacin-induced intestinal inflammation in three separate studies.
Study 1: Intestinal inflammation was induced in eighty male Wistar rats (Harlan Sprague Dawley) using indomethacin administered on Days 0 and 1 of the experiment. The rats were divided into seven treatment groups for treatment according to Table 19.
All treatments were administered per the schedule starting on Day −3 of the experiment. Body weights were determined daily. Groups 3 and 5 were dosed equimolar/day. On Day 2 (24 hours post-2nd indomethacin dose), the animals were prepped for sacrifice and analysis. Thirty minutes prior to sacrifice, the rats were injected intravenously with 1 ml 1% Evans Blue dye, in order to visualize ulcers and extent of inflammation by histopathology analysis. The rats were anesthetized (SOP 1810), blood samples were removed to determine the concentration of GLP-2-2G-XTEN using the anti-XTEN/anti-GLP2 ELISA method. The rats were euthanized then necropsied and scored by gross examination of the intestines for the presence of adhesions; i.e., none=0, mild=1, moderate=2, or severe=3. The small intestines were removed and the length of each was recorded. In each small intestine, a longitudinal incision was made and the interior was examined. The degree and length of the ulcerated area was recorded as a score; i.e., none=0, few=1, multiple=2, or continuous=3. For TNFα determination, intestinal samples were thawed and homogenized in a total of 20 ml with DPBS. The supernatants were equilibrated to room temperature and assayed for TNFα by ELISA (R&D Systems, Cat. RTA00, lot 281687, exp. 7 Sep. 2011). The samples for Group 1 were assayed undiluted. The samples for Groups 2-7 were diluted 1:4. For histopathology, the small intestines were gently washed with saline to remove the fecal material and were blotted to remove excess fluid. Each small intestine was weighed then processed for histopathology examination to quantitate the degree of inflammation; i.e., 0.0%=0, 1-33%=1, 34-66%=2, 67-100%=3.

The test system is the same in data set [4]. Format: in vivo, rat. As for the experimental part: Study 2: Intestinal inflammation was induced in eighty male Wistar rats (Harlan Sprague Dawley) using indomethacin administered on Days 0 and 1 of the experiment. The rats were divided into eight treatment groups for treatment according to Table 20. All treatments were administered per the schedule starting on Day-3 of the experiment. Body weights were determined daily. On Day 2 (24 hours post-2nd indomethacin dose), the animals were prepped for sacrifice and analysis. Thirty minutes prior to sacrifice, the rats were injected intravenously with 1 ml 1% Evans Blue dye, in order to visualize ulcers and extent of inflammation by histopathology analysis. The rats were anesthetized and blood samples were removed to determine the concentration of GLP-2-2G-XTEN using the anti-XTEN/anti-GLP2 ELISA method. The rats were euthanized then necropsied and scored by gross examination of the intestines for the presence of adhesions; i.e., none=0, mild=1, moderate=2, or severe=3. The small intestines were removed and the length of each was recorded. In each small intestine, a longitudinal incision was made and the interior was examined. The degree and length of the ulcerated area was recorded as a score; i.e., none=0, few=1, multiple=2, or continuous=3. The fecal material was washed away with saline and blotted to remove excess fluid and each small intestine was weighed then processed for histopathology examination to quantitate the degree of inflammation; i.e., 0.0%=0, 1-33%=1, 34-66%=2, 67-100%=3.

The test system is the same in data set [5]. In words: Rat Crohn's Disease indomethacin-induced intestinal inflammation model, Study 3. Type of data set: in vivo. As to the method: Study 3: A third indomethacin-induced inflammation study was performed to verify previous results and test additional dose regimens. Intestinal inflammation was induced in male Wistar rats (Harlan Sprague Dawley) using indomethacin administered on Days 0 and 1 of the experiment according to Table 21.
All treatments were administered per the schedule starting on Day-3 of the experiment. Body weights were determined daily. On Day 2 (24 hours post-2nd indomethacin dose), the animals were prepped for sacrifice and analysis. The small intestines were removed and the length of each was recorded. Quantitative histopathology was performed on a subset of samples. Rat small intestine samples consisted of a 3 cm section of proximal jejunum and a 3 cm section of mid-jejunum collected 15 cm and 30 cm from the pylorus, respectively. Samples were fixed in 10% neutral buffered formalin. Samples were trimmed into multiple sections without bias toward lesion presence or absence. These sections were placed in cassettes, embedded in paraffin, microtomed at approximately 4 microns thickness, and stained with hematoxylin and eosin (H&E). The slides were evaluated microscopically by a board certified veterinary pathologist and scored for villous height as well as infiltration/inflammation, mucosal atrophy, villi/crypt appearance, abscesses/ulceration. A 1 to 4 severity grading scale was used, where 1=minimal, 2=mild, 3=moderate, 4=marked/severe, reflecting the combination of the cellular reactions seen histopathologically. Small intestine length was analyzed with an ANOVA model with a Tukey/Kramer post-hoc test for pairwise comparisons, with significance at p=0.05. Non-parametric histology score variables were compared with the vehicle control using a Mann Whitney U test with a Bonferroni correction for the p-value to create an overall alpha of 0.05.

For data set [6] the following is noted: cited from earlier work; for terminal half-life: in humans.

Like-named read-outs stand apart in the source and are kept apart here.

In the case of `CC[C@H](C)[C@H](NC(=O)[C@H](Cc1ccccc1)NC(=O)[C@H](CC(=O)O)NC(=O)[C@H](CCCNC(=N)N)NC(=O)[C@H](C)NC(=O)[C@H](C)NC(=O)[C@H](CC(C)C)NC(=O)[C@H](CC(N)=O)NC(=O)[C@H](CC(=O)O)NC(=O)[C@H](CC(C)C)NC(=O)[C@@H](NC(=O)[C@@H](NC(=O)[C@H](CC(N)=O)NC(=O)[C@H](CCSC)NC(=O)[C@H](CCC(=O)O)NC(=O)[C@H](CC(=O)O)NC(=O)[C@H](CO)NC(=O)[C@H](Cc1ccccc1)NC(=O)[C@H](CO)NC(=O)CNC(=O)[C@H](CC(=O)O)NC(=O)CNC(=O)[C@@H](N)Cc1c[nH]cn1)[C@@H](C)O)[C@@H](C)CC)C(=O)N[C@@H](CC(N)=O)C(=O)N[C@@H](Cc1c[nH]c2ccccc12)C(=O)N[C@@H](CC(C)C)C(=O)N[C@H](C(=O)N[C@@H](CCC(N)=O)C(=O)N[C@H](C(=O)N[C@@H](CCCCN)C(=O)N[C@H](C(=O)N[C@H](C(=O)N[C@@H](CC(=O)O)C(=O)O)[C@@H](C)O)[C@@H](C)CC)[C@@H](C)O)[C@@H](C)CC` [GLP2-2G peptide, reference compound], the “increase in small intestine length” value in data set [1] is “no significant effects”. The “increase in small intestine weight” value in data set [1] is listed as 24%. Also, in data set [2] (BID days 1-10), the “growth in the assayed tissues (colon, small intestine, stomach)” value was “did not induce significant growth”. Also, the “loss of body weight” value in data set [2] (SC days 1-10, peptide BID, fusion protein QD, any dose) is on record as “neither the mice treated with GLP2-2G peptide nor any of the groups of mice treated with any dose of GLP2-2G-XTEN mice showed a reduced loss of body weight”. Also, in data set [3] (0.5 mg/kg peptide, both fusion protein groups, compared to diseased control Group 2, FIG. 21C), the small intestine weight result is recorded as “significant increase”. The small intestine length result in data set [3] (FIG. 21B) is “significant increase”; in data set [4] (once-daily fusion protein, daily bid peptide, vs indomethacin-treated vehicle control), “reached statistically significant difference”. The “ulceration (gross pathology scoring of small intestine)” value in data set [3] (FIG. 21D) is recorded as “significant decreases in ulceration”. In data set [3] (FIG. 21F), the “small intestine inflammation score” value was “neither the GLP-2-2G peptide nor the GLP-2-2G-XTEN fusion protein treatments showed a significant effect on inflammation”. Further, in data set [3] (compared to disease control (Group 2), FIG. 21A), the “body weight at termination” value was “did not have a significant increase in body weight”. For the same compound, in data set [3] (compared to diseased control (Group 2), FIG. 21E), the “scores of adhesions and transulceration” value is “significant decreases”. For the same compound, the “TNFα in small intestine (ELISA)” value in data set [3] (compared to diseased control Group 2, FIG. 21G) is “significantly decreased cytokine levels”. For the same compound, in data set [4] (daily bid peptide, once-daily fusion protein), the “histopathology: protective effects” value was “most pronounced in the ileum, but were also seen in the jejunum”. Besides, the adhesions score entry in data set [4] (once-daily fusion protein, daily bid peptide, FIG. 22B) is given as “reached statistically significant difference”. The total disease score entry in data set [4] (peptide delivered bid, fusion protein delivered qd, vs indomethacin-treated vehicle control) is recorded as “significantly improved scores”. Moreover, the villi height entry in data set [5] (fusion protein high (total dose 125 nmol/kg) and low (total dose 75 nmol/kg), FIG. 24B) is reported as “not significant”. Also, the “mucosal ulceration and mixed cell infiltrate” value in data set [5] (three treatment groups) is “not significant”.
As for `CC[C@H](C)[C@H](NC(=O)[C@H](Cc1ccccc1)NC(=O)[C@H](CC(=O)O)NC(=O)[C@H](CCCNC(=N)N)NC(=O)[C@H](C)NC(=O)[C@H](C)NC(=O)[C@H](CC(C)C)NC(=O)[C@H](CC(N)=O)NC(=O)[C@H](CC(=O)O)NC(=O)[C@H](CC(C)C)NC(=O)[C@@H](NC(=O)[C@@H](NC(=O)[C@H](CC(N)=O)NC(=O)[C@H](CCSC)NC(=O)[C@H](CCC(=O)O)NC(=O)[C@H](CC(=O)O)NC(=O)[C@H](CO)NC(=O)[C@H](Cc1ccccc1)NC(=O)[C@H](CO)NC(=O)CNC(=O)[C@H](CC(=O)O)NC(=O)CNC(=O)[C@@H](N)Cc1c[nH]cn1)[C@@H](C)O)[C@@H](C)CC)C(=O)N[C@@H](CC(N)=O)C(=O)N[C@@H](Cc1c[nH]c2ccccc12)C(=O)N[C@@H](CC(C)C)C(=O)N[C@H](C(=O)N[C@@H](CCC(N)=O)C(=O)N[C@H](C(=O)N[C@@H](CCCCN)C(=O)N[C@H](C(=O)N[C@H](C(=O)N[C@@H](CC(=O)O)C(=O)O)[C@@H](C)O)[C@@H](C)CC)[C@@H](C)O)[C@@H](C)CC` [teduglutide], the terminal half-life in data set [6] (reported (Marier 2008)) was 192 min. In addition, in data set [6] (reported (Marier 2010)), the terminal half-life is 54 to 138 min and the half life is 54 to 138 min.
Regarding “native GLP-2: human glucagon-like peptide-2, 33 amino acids, HADGSFSDEMNTILDNLAARDFINWLIQTKITD (SEQ ID NO: 2)”, the “half-life (terminal half-life in humans)” value in data set [6] (human, in vivo) is “approximately seven minutes”.
